In patent publication US5405852A, “Amide derivatives” (Zeneca Limited, priority 1992, dated 1995):

Molecular target: T1, human leukocyte elastase (HLE) (Homo sapiens, UniProt P08246)
T1 sequence (P08246 30-267): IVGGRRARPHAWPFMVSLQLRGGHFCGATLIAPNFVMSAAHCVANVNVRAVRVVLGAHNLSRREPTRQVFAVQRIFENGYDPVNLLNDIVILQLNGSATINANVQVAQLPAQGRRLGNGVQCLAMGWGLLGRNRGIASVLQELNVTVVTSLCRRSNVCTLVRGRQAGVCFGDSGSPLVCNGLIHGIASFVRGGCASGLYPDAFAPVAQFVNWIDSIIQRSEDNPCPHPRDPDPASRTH
Assay: Inhibition of human leukocyte elastase (HLE) on methoxy-succinyl-alanyl-alanyl-prolyl-valine-p-nitroanilide
Type: biochemical
Conditions: dissociation constant of the inhibitor-HLE complex
Protocol: The potency of a Compound to act as an inhibitor of human leukocyte elastase (HLE) on the low molecular weight peptide substrate methoxy-succinyl-alanyl-alanyl-prolyl-valine-p-nitroanilide is determined as described in U.S. Pat. No. 4,910,190. The potency of an inhibitor is evaluated by obtaining a kinetic determination of the dissociation constant, Ki, of the complex formed from the interaction of the inhibitor with HLE. If a Compound is found to be a "slow-binding" inhibitor of HLE, special methods of analysis to accurately determine Ki values for the inhibition of HLE are carried out as described in U.S. Pat. 4,910,190.

Molecule `CC(C)C(NC(=O)Cn1c(-c2ccccc2)cc2c([nH]c3c(C=O)cccc32)c1=O)C(=O)C(F)(F)F` (stereo not shown) [Example 2, 2-(8-Formyl-1-oxo-3-phenyl-1,2-dihydropyrido[3,4-b]indol2-yl)-N-(3,3,3-trifluoro-1-isopropyl-2-oxopropyl)acetamide] has a Ki of 27 nM.
